Reference: patent publication EP4635500A1, “THERAPEUTIC AGENT FOR BACTERIAL INFECTION” (Sumitomo Pharma Co., Ltd., priority 2022, dated 2024)
Read-outs that look alike come from different tables or passages of the source.

What was measured:
P. aeruginosa = experiment: MIC, broth microdilution, CDC/FDA Antibiotic Resistance Isolate Bank (Example 7, Tables 10, 15); type: cell-based; conditions: for MIC: Pseudomonas aeruginosa, read-out: MIC
53 CRE and CPE strains = experiment: MICrange, MIC50, MIC80, MIC90 for 53 bacterial isolates (Example 5, Table 5); type: cell-based
[1] = 26 metallo-carbapenemase-producing P. aeruginosa strains, β-lactamase inhibitor µg/mL in parentheses
[2] = 96 strains of P. aeruginosa, β-lactamase inhibitor µg/mL in parentheses

CC(C)(O/N=C(\C(=O)N[C@@H]1C(=O)N2C(C(=O)[O-])=C(C[N+]3(CCNC(=O)c4ccc(O)c(O)c4Cl)CCCC3)CS[C@H]12)c1csc(N)n1)C(=O)O [Cefiderocol, cefiderocol]
0.25 ng/mL: MIC (P. aeruginosa; P. aeruginosa KUB No. 5816, AR Bank # 511) | MIC (P. aeruginosa; P. aeruginosa KUB No. 5818, AR Bank # 513) | MIC (P. aeruginosa; P. aeruginosa KUB No. 5823, AR Bank # 518) | MIC (P. aeruginosa; P. aeruginosa KUB No. 5832, AR Bank # 527) | MIC (P. aeruginosa; P. aeruginosa KUB No. 5833, AR Bank # 528)
250 ng/mL: MIC (P. aeruginosa; P. aeruginosa KUB No. 5607, AR Bank # 110) | MIC (P. aeruginosa; P. aeruginosa KUB No. 5667, AR Bank # 234) | MIC (P. aeruginosa; P. aeruginosa KUB No. 5669, AR Bank # 236) | MIC (P. aeruginosa; P. aeruginosa KUB No. 5670, AR Bank # 237) | MIC (P. aeruginosa; P. aeruginosa KUB No. 5674, AR Bank # 241) | MIC (P. aeruginosa; P. aeruginosa KUB No. 5677, AR Bank # 244) | MIC (P. aeruginosa; P. aeruginosa KUB No. 5678, AR Bank # 245) | MIC (P. aeruginosa; P. aeruginosa KUB No. 5688, AR Bank # 255) | MIC (P. aeruginosa; P. aeruginosa KUB No. 5690, AR Bank # 257) | MIC (P. aeruginosa; P. aeruginosa KUB No. 5691, AR Bank # 258) | MIC (P. aeruginosa; P. aeruginosa KUB No. 5693, AR Bank # 260) | MIC (P. aeruginosa; P. aeruginosa KUB No. 5697, AR Bank # 264) | MIC (P. aeruginosa; P. aeruginosa KUB No. 5701, AR Bank # 268) | MIC (P. aeruginosa; P. aeruginosa KUB No. 5703, AR Bank # 270) | MIC (P. aeruginosa; P. aeruginosa KUB No. 5704, AR Bank # 271) | MIC (P. aeruginosa; P. aeruginosa KUB No. 5705, AR Bank # 272) | MIC (P. aeruginosa; P. aeruginosa KUB No. 5747, AR Bank # 351) | MIC (P. aeruginosa; P. aeruginosa KUB No. 5751, AR Bank # 355) | MIC (P. aeruginosa; P. aeruginosa KUB No. 5755, AR Bank # 359) | MIC (P. aeruginosa; P. aeruginosa KUB No. 5756, AR Bank # 360) | MIC (P. aeruginosa; P. aeruginosa KUB No. 5786, AR Bank # 440) | MIC (P. aeruginosa; P. aeruginosa KUB No. 5798, AR Bank # 455) | MIC (P. aeruginosa; P. aeruginosa KUB No. 5799, AR Bank # 456) | MIC (P. aeruginosa; P. aeruginosa KUB No. 5800, AR Bank # 457)
1000 ng/mL: MIC (P. aeruginosa; P. aeruginosa KUB No. 5587, AR Bank # 90) | MIC (P. aeruginosa; P. aeruginosa KUB No. 5600, AR Bank # 103) | MIC (P. aeruginosa; P. aeruginosa KUB No. 5602, AR Bank # 105) | MIC (P. aeruginosa; P. aeruginosa KUB No. 5668, AR Bank # 235) | MIC (P. aeruginosa; P. aeruginosa KUB No. 5671, AR Bank # 238) | MIC (P. aeruginosa; P. aeruginosa KUB No. 5673, AR Bank # 240) | MIC (P. aeruginosa; P. aeruginosa KUB No. 5702, AR Bank # 269) | MIC (P. aeruginosa; P. aeruginosa KUB No. 5749, AR Bank # 353) | MIC (P. aeruginosa; P. aeruginosa KUB No. 5752, AR Bank # 356) | MIC (P. aeruginosa; P. aeruginosa KUB No. 5787, AR Bank # 441) | MIC (P. aeruginosa; P. aeruginosa KUB No. 5788, AR Bank # 443)
120 ng/mL: MIC (P. aeruginosa; P. aeruginosa KUB No. 579, AR Bank # 447) | MIC (P. aeruginosa; P. aeruginosa KUB No. 5662, AR Bank # 229) | MIC (P. aeruginosa; P. aeruginosa KUB No. 5665, AR Bank # 232) | MIC (P. aeruginosa; P. aeruginosa KUB No. 5666, AR Bank # 23) | MIC (P. aeruginosa; P. aeruginosa KUB No. 5680, AR Bank # 247) | MIC (P. aeruginosa; P. aeruginosa KUB No. 5684, AR Bank # 251) | MIC (P. aeruginosa; P. aeruginosa KUB No. 5686, AR Bank # 253) | MIC (P. aeruginosa; P. aeruginosa KUB No. 5692, AR Bank # 259) | MIC (P. aeruginosa; P. aeruginosa KUB No. 5695, AR Bank # 262) | MIC (P. aeruginosa; P. aeruginosa KUB No. 5696, AR Bank # 263) | MIC (P. aeruginosa; P. aeruginosa KUB No. 5700, AR Bank # 267) | MIC (P. aeruginosa; P. aeruginosa KUB No. 5802, AR Bank # 459) | MIC (P. aeruginosa; P. aeruginosa KUB No. 5806, AR Bank # 864)
0.12 ng/mL: MIC (P. aeruginosa; P. aeruginosa KUB No. 5819, AR Bank # 514) | MIC (P. aeruginosa; P. aeruginosa KUB No. 5831, AR Bank # 526)
0.5 µg(mL): MIC against 26 metallo-carbapenemase-producing strains MIC50 (P. aeruginosa; [1]) | MIC against 96 strains of P. aeruginosa MIC50 (P. aeruginosa; [2])
≤ 0.06 ng/mL: MIC (P. aeruginosa; P. aeruginosa KUB No. 5815, AR Bank # 510) | MIC (P. aeruginosa; P. aeruginosa KUB No. 5834, AR Bank # 529)
1 ng/mL: MIC (P. aeruginosa; P. aeruginosa KUB No. 5813, AR Bank # 508) | MIC (P. aeruginosa; P. aeruginosa KUB No. 5817, AR Bank # 512) | MIC (P. aeruginosa; P. aeruginosa KUB No. 5820, AR Bank # 515)
0.25 - 4 µg(mL): MIC against 26 metallo-carbapenemase-producing strains MICrange (P. aeruginosa; [1])
4000 ng/mL: MIC (P. aeruginosa; P. aeruginosa KUB No. 5083, AR Bank # 250) | MIC (P. aeruginosa; P. aeruginosa KUB No. 5679, AR Bank # 246) | MIC (P. aeruginosa; P. aeruginosa KUB No. 5753, AR Bank # 357)
≤0.06 to 8 µg/mL: MICrange (53 CRE and CPE strains; 53 bacterial isolates)
0.5 ng/mL: MIC (P. aeruginosa; P. aeruginosa KUB No. 5814, AR Bank # 509) | MIC (P. aeruginosa; P. aeruginosa KUB No. 5821, AR Bank # 516)
≤ 60 ng/mL: MIC (P. aeruginosa; P. aeruginosa KUB No. 5694, AR Bank # 261)
2 µg(mL): MIC against 26 metallo-carbapenemase-producing strains MIC90 (P. aeruginosa; [1]) | MIC against 96 strains of P. aeruginosa MIC90 (P. aeruginosa; [2])
2000 ng/mL: MIC (P. aeruginosa; P. aeruginosa KUB No. 5561, AR Bank # 64) | MIC (P. aeruginosa; P. aeruginosa KUB No. 5589, AR Bank # 92) | MIC (P. aeruginosa; P. aeruginosa KUB No. 5591, AR Bank # 94) | MIC (P. aeruginosa; P. aeruginosa KUB No. 5664, AR Bank # 231) | MIC (P. aeruginosa; P. aeruginosa KUB No. 5672, AR Bank # 239) | MIC (P. aeruginosa; P. aeruginosa KUB No. 5685, AR Bank # 252) | MIC (P. aeruginosa; P. aeruginosa KUB No. 5689, AR Bank # 256) | MIC (P. aeruginosa; P. aeruginosa KUB No. 5801, AR Bank # 458)
≤0.06 - 4 µg(mL): MIC against 96 strains of P. aeruginosa MICrange (P. aeruginosa; [2])
4 µg/mL: MIC90 (53 CRE and CPE strains; 53 CRE and CPE strains, read-out: MIC90) | MIC90 (53 CRE and CPE strains; 53 bacterial isolates)
500 ng/mL: MIC (P. aeruginosa; P. aeruginosa KUB No. 5551, AR Bank # 54) | MIC (P. aeruginosa; P. aeruginosa KUB No. 5592, AR Bank # 95) | MIC (P. aeruginosa; P. aeruginosa KUB No. 5597, AR Bank # 100) | MIC (P. aeruginosa; P. aeruginosa KUB No. 5605, AR Bank # 108) | MIC (P. aeruginosa; P. aeruginosa KUB No. 5608, AR Bank # 111) | MIC (P. aeruginosa; P. aeruginosa KUB No. 5663, AR Bank # 230) | MIC (P. aeruginosa; P. aeruginosa KUB No. 5675, AR Bank # 242) | MIC (P. aeruginosa; P. aeruginosa KUB No. 5676, AR Bank # 243) | MIC (P. aeruginosa; P. aeruginosa KUB No. 5681, AR Bank # 248) | MIC (P. aeruginosa; P. aeruginosa KUB No. 5682, AR Bank # 249) | MIC (P. aeruginosa; P. aeruginosa KUB No. 5687, AR Bank # 254) | MIC (P. aeruginosa; P. aeruginosa KUB No. 5698, AR Bank # 265) | MIC (P. aeruginosa; P. aeruginosa KUB No. 5699, AR Bank # 266) | MIC (P. aeruginosa; P. aeruginosa KUB No. 5748, AR Bank # 352) | MIC (P. aeruginosa; P. aeruginosa KUB No. 5750, AR Bank # 354) | MIC (P. aeruginosa; P. aeruginosa KUB No. 5754, AR Bank # 358) | MIC (P. aeruginosa; P. aeruginosa KUB No. 5785, AR Bank # 439) | MIC (P. aeruginosa; P. aeruginosa KUB No. 5789, AR Bank # 444) | MIC (P. aeruginosa; P. aeruginosa KUB No. 5790, AR Bank # 445) | MIC (P. aeruginosa; P. aeruginosa KUB No. 5793, AR Bank # 449) | MIC (P. aeruginosa; P. aeruginosa KUB No. 5804, AR Bank # 862) | MIC (P. aeruginosa; P. aeruginosa KUB No. 5805, AR Bank # 863)
2 µg/mL: MIC80 (53 CRE and CPE strains; 53 bacterial isolates, read-out: MIC80)
